Measured values taken from paper PMC3996367, “Profiling of drugs and environmental chemicals for functional impairment of neural crest migration in a novel stem cell-based test battery” (Archives of Toxicology, 2014).

Key:
rats = details: cited from earlier work
[1] = test system: mESC-derived neural stem cells (mESCn); details: mouse
[2] = test system: migration of hESC-derived neural crest cells (NCC); assay: MINC assay (migration inhibition of neural crest cells, UKN2); details: 48 h, in a non-cytotoxic concentration range
Xenopus laevis embryos = test system: Xenopus laevis embryos; parameters: method as in Di Renzo et al. (2011); details: treated during early neurulation; craniofacial defects, bent forebrain, abnormal hindbrain segmentation; ref Di Renzo et al. (2011); cited from earlier work
[3] = parameters: method as in US EPA [2006]; details: ref US EPA [2006]; cited from earlier work
[4] = parameters: method as in US EPA [2006]; details: ref US EPA [2006]; cited from earlier work; remark: listed apart in the source
HEK293 cells = details: human
[5] = test system: hESC-derived neural crest cells (NCC); details: human

For `CC(C)(C)C(=O)C(Oc1ccc(Cl)cc1)n1cncn1` (stereo not drawn) [Triadimefon], the “Dose increasing testosterone levels and related effects in male offspring” value (rats; Wistar rats, perinatal exposure, ref Goetz et al. (2007)) is listed as 47 mg/kg/day, the “Dose causing the same neurotoxic symptoms” value (rats; chronic dietary exposure, male Wistar rats, ref US EPA (2006)) is listed as 54.6 mg/kg/day and the “Doses at which a range of toxic effects is observed” value (rats; effects on male fertility and CNS toxicity, ref Crowell et al. 2011) is listed as “around 50 mg/kg/day”. For the same compound, the “Dose causing transient CNS toxicity (hyperactivity, stereotyped behavior)” value (rats; single dose, oral gavage, adult male Long-Evans rats, ref Crofton et al. (2011)) was 50 mg/kg, the “Highest non-cytotoxic conc. in mESCn” value [1] was over 50.0 µM and the “Effect on NCC migration in concentration-response study” value [2] was “concentration-dependent effect”. For the same compound, the Concentration inducing abnormalities (Xenopus laevis embryos) was 500 µM, the “Octanol:water partition (Kow)” value [3] was 912 and the “Blood:plasma concentration ratio” value [4] was 0.84. For the same compound, the “Free (unbound) fraction” value [4] was 0.11, the “Highest non-cytotoxic conc. in HEK293” value (HEK293 cells) was 50.0 µM and the “Concentration for hit finding in NCC (highest non-cytotoxic concentration in the UKN2 test system)” value [5] was 50 µM.
